Values of other authors as cited in patent US20130216646A1, “Nanoparticles of Nutritional and Pharmaceutical Compounds” (priority 2011, published 2013).
Like-named read-outs stand apart in the source and are kept apart here.

Assays:
[1] = dogs
[2] = for Sojourn time: another study
[3] = in vivo

## [Ca+2] [calcium]
Rat intestine, another study
  Share of calcium absorption occurring in the duodenum: 7%
  Share of calcium absorption occurring in the ileum: 65%
  Share of calcium absorption occurring in the jejunum: 17%
Rat small intestine, one study
  Share of calcium absorption occurring in the duodenum: 8%
  Share of calcium absorption occurring in the ileum: 88%
  Share of calcium absorption occurring in the jejunum: 4%
[1]
  Share of calcium absorption occurring in the duodenum: 4%
  Share of calcium absorption occurring in the ileum: 80%
  Share of calcium absorption occurring in the jejunum: 16%
[2]; rat duodenum
  Transit half-time: 6 min
  Sojourn time: 2.2 min
[2]; rat ileum
  Transit half-time: 102 min
  Sojourn time: 121.5 min
[3]
  Share of overall calcium absorption accounted for by the small intestine: about 90%
